The source of these data is patent US20150057447A1, “METHOD OF PRODUCING N-PHENYL-N'-PHENYLSULFONYL PIPERAZINE DERIVATIVE AND INTERMEDIATE THEREOF” (priority 2012, published 2015).

Common to all, as to assay type: physicochemical
Data set [1] can be described thus: Evaluation of sublimation (heating under reduced pressure, flask with condenser tube). On the procedure:
5-Chloro-2-(1,3-oxazole-2-yl)phenol (I-3, 3.01 g, 15.4 mmol) which was obtained from the method described in Patent Document 6 was measured in a round-bottomed flask with condenser tube filled with −15° C. cooling liquid, and heated at 40° C. for 6 hours under the reduced pressure (16˜18 mmHg). After 6 hours, 0.02 g of colorless solids were adhered to the condenser tube. The colorless solids were measured by ^1H-NMR (DMSO-d6), it was confirmed to be 5-chloro-2-(1,3-oxazole-2-yl)phenol (I-3).

A short description of data set [2]: Evaluation of sublimation by measuring TG/DTA. The conditions noted are these: for sublimation (conclusion from TG/DTA): open system. On the procedure:
Evaluation of Sublimation by Measuring TG/DTA
(1) 5-Chloro-2-(1,3-oxazole-2-yl)phenol (I-3, 5 mg) which was obtained from the method described in Patent Document 6 was measured, and an aluminum pan was stuffed with it and measured in the open system. The measurement conditions are as follows.
Device: TG/DTA 7200 by SII nano technology Measurement temperature range: 30° C.-200° C. Heating rate: 10° C./minute Purge gas: N2 200 mL/minute
(2) 5-Chloro-2-(1,3-oxazole-2-yl)phenol (I-3, about 10 mg) which was obtained from the method described in Patent Document 6 was measured, and an aluminum pan was stuffed with it and measured in the open system. The measurement conditions are as follows.
Device: TG/DTA 7200 by SII nano technology Measurement temperature, range: 40° C. Measurement time: 720 minutes Purge gas: N2 200 mL/minute
(3) Magnesium bis[5-chloro-2-(1,3-oxazole-2-yl)phenolate (I-2, 5 m g) which was obtained from Example 1(1) was measured, and an aluminum pan was stuffed with it and measured in the open system. The measurement conditions are as follows.
Device: TG/DTA 7200 by SII nano technology Measurement temperature program: 30° C.-200° C. Rate of temperature increase: 10° C./minute Purge gas: N2 200 mL/minute

Data set [3] can be described thus: Evaluation of hygroscopicity by measuring moisture adsorption-desorption isotherm. The conditions noted are these: 25° C.; for ratio of mass increase, moisture desorption isotherm: 0% RH; for ratio of mass increase relative to the mass at 0% RH, moisture adsorption isotherm: 95% RH. The source says:
Moisture adsorption-desorption isotherm is one of means for measuring the adsorption or desorption of moisture. It is a method of measuring the mass change as a function of the relative humidity at constant temperature, and under the conditions where adsorption or desorption is essentially occurring independently of time (equilibrium conditions). Moisture adsorption-desorption isotherm is obtained by plotting relative humidities versus the ratio(%) of the mass increase compared to the mass when the relative humidity of 0%. Accordingly, it is possible to obtain the information about hygroscopicity or dehumidifying nature of the sample.
Moisture adsorption-desorption isotherm of the compounds specified in following (1) to (4) obtained from corresponding examples were measured by the following conditions.
(Operating Method) About 50 mg of the sample was weighted in the mesh stainless-steel sample container, then it was dried at the relative humidity (hereinafter, RH) 0% until the mass change doesn't happen in the device. Temperature and humidity were controlled by the following conditions, and dynamic gravimetric measurement was conducted. Measurement temperature: 25° C. Measurement humidity range: adsorption 0˜95% RH, desorption 95˜0% RH, 5% RH interval Measurement condition: Isotherm condition Herein, isotherm condition means that measurement is move on to next humidity point when the mass change is no longer observed after minimum waiting time or when the equilibrium of mass was not observed until maximum waiting time under constant humidity. The minimum waiting time for equilibrium determination at each humidity: 10 minutes The maximum waiting time for equilibrium determination at each humidity: 2 hours Humidity control: nitrogen and humidification device, 250 mL/minutes (1) Result of the moisture adsorption-desorption isotherm for magnesium bis[5-chloro-2-(1,3-oxazole-2-yl)phenolate] In measuring the moisture adsorption isotherm, in the case of 95% RH, the ratio of mass increase was 2% relative to the mass at 0% RH. In measuring the moisture desorption isotherm, in the case of 0% RH, the ratio of mass increase was 0%. (2) Result of the moisture adsorption-desorption isotherm for calcium bis[5-chloro-2-(1,3-oxazole-2-yl)phenolate] In measuring the moisture adsorption isotherm, in the case of 95% RH, the ratio of mass increase was 3% relative to the mass at 0% RH. In measuring the moisture desorption isotherm, in the case of 0% RH, the ratio of mass increase was 0%.

For the molecule `Oc1cc(Cl)ccc1-c1ncco1` [Compound I-3, 5-chloro-2-(1,3-oxazole-2-yl)phenol], the “colorless solids adhered to the condenser tube” value in data set [1] (3.01 g heated at 40° C. for 6 hours under reduced pressure (16~18 mmHg), condenser at -15° C.) came to 0.02 g. The “sublimation (conclusion from reduced pressure heating test)” value in data set [1] (40° C., 6 hours, 16~18 mmHg) was “has sublimation”. Also, the “weight loss (TG/DTA, constant temperature)” value in data set [2] (40° C., 720 minutes, solid state, open aluminum pan, N2 200 mL/minute) is 1.6%. The “sublimation (conclusion from TG/DTA)” value in data set [2] is on record as “has sublimation”. In data set [2] (observed at 40-85° C., range 30° C.-200° C., heating rate 10° C./minute, open aluminum pan, N2 200 mL/minute), the “weight loss (TG/DTA)” value came to 0.38%.

Turning to “calcium bis[5-chloro-2-(1,3-oxazole-2-yl)phenolate] [Compound I-7]”, in data set [3], the “ratio of mass increase, moisture desorption isotherm” value was determined as 0% and the “ratio of mass increase relative to the mass at 0% RH, moisture adsorption isotherm” value was 3%.

Consider “magnesium bis[5-chloro-2-(1,3-oxazole-2-yl)phenolate] [Compound I-2]”, for which, in data set [3], the “ratio of mass increase, moisture desorption isotherm” value was determined as 0% and the “ratio of mass increase relative to the mass at 0% RH, moisture adsorption isotherm” value is 2%. Moreover, the “sublimation (conclusion from TG/DTA)” value in data set [2] is recorded as “doesn't have sublimation”. The “melting and weight loss (TG/DTA)” value in data set [2] (about 30° C.-about 180° C., program 30° C.-200° C., 10° C./minute, N2 200 mL/minute) is on record as “not observed”.
